Reference: patent publication US20130150386A1 (priority 2011, published 2013)

How the values were obtained:
[1] = in vivo; cited from earlier work
[2] = system: NSCLC patients; details: E-cad 3+ sub-group [N=26]

SMILES	half-life [1]	overall survival [2] [months]
Nc1ccccc1NC(=O)c1ccc(CNC(=O)OCc2cccnc2)cc1 [Entinostat, N-(2-aminophenyl)-4-[N-(pyridine-3-yl)methoxycarbonylamino-methyl]-benzamide]	about 100 hours	–
C#Cc1cccc(Nc2ncnc3cc(OCCOC)c(OCCOC)cc23)c1 [erlotinib/placebo]	–	5.4
